How the values were obtained:
Format in all cases: in vivo
[1] = tested on: Musca domestica, susceptible strain WHO(N); assay: Efficacy of formulations on surfaces (glazed/unglazed tiles), house flies, continuous exposure; details: Table 114; 0.1% = 50 mg Bendiocarb/m^2 on glazed tiles; EC formulation; continuous exposure
Description: A flat fan nozzle (type SS 8003-E) in a spray cabin was moved automatically over a defined area where the solutions were sprayed very evenly onto the surfaces. The formulation was mixed with water to give a concentration which corresponded to the desired quantity of a.i./m^2. A defined quantity of this solution was sprayed onto the area (nominal 350 liter/ha=0.77 ml per surface).
(§1) All surfaces were provided with talcum-coated glass rings (diameter 9.5 cm, height 5.5 cm) one day later.
The test insects were anesthetized with CO2, 20 individuals were placed onto the treated surfaces and the glass ring was covered with wire gauze ring.
Knock down was determined after 15 and 30′, 1, 2, 4 and 6 hours, mortality after 1 day exposure.
(§2) Each test consisted of at least one replicate and any additional replicates are noted.
(§3) Test Insects: House flies (Musca domestica) of both sexes, susceptible strain WHO(N) and resistant strain Reichswald
(§4) Evaluation: Mortality was evaluated cumulatively at different times. […]
(§5) Test Insects: Culex quinquefasciatus (adults) (3 minutes exposure time according to USDA Petri Dish Method), Musca domestica (adults), susceptible and resistant strain, Blattella germanica (males), Cimex lectularius (adults) (all: continuous exposure time)
(§6) Application: The EC formulation (diluted with water 1:9) were applied as 0.85 ml solutions onto glazed tiles (15 cm×15 cm)
Evaluation: Knock down after 15, and 30 minutes, 1, 2, 3, 4, 6 and 24 hours (mortality)
Test Insects: Culex quinquefasciatus (adults, susceptible) (3 minutes exposure time according to USDA Petri Dish Method), Musca domestica (adults, susceptible and resistant), Blattella germanica (males, susceptible) (both: continuous exposure time)
Formulations: Insecticide with or without 10% Compound A (as EC), to be diluted with water (1 part formulation+9 parts water)
Evaluation: Knock down after 3, 9 (mosquitoes only), 15, and 30 minutes, 1, 2, 3, 4 and 24 hours (mortality) […]

[2] = tested on: Musca domestica, resistant strain Reichswald; assay: as above; details: Table 115; 0.1% = 50 mg Bendiocarb/m^2 on glazed tiles; EC formulation; continuous exposure
Description: as §1
The test insects were anesthetized with CO2, 20 individuals were placed onto the treated surfaces and the glass ring was covered with wire gauze ring. […]
as §2, §3, §4, §5, §6

[3] = tested on: Red Imported Fire ant (RIFA), Solenopsis invicta; assay: Knockdown/mortality of ant workers under continuous exposure on treated glazed tile; details: glazed tile
Source text: Treatments were allowed to dry overnight. […] Treatments were replicated minimum three times.
Treatments were allowed to dry overnight. […] Treatments were replicated a minimum of three times.

[4] = tested on: susceptible/normal German cockroach (Monheim strain), Blattella germanica; assay: Knockdown/mortality of male cockroaches under continuous exposure on treated glazed tile; details: glazed tile, Monheim strain; for Average % Knockdown & Mortality after 60 min / Average % Knockdown & Mortality after 3 hr / Average % Knockdown & Mortality after 5 hr / Average % Knockdown & Mortality after 24 hr: Table 53, fipronil/adjuvant in acetone
Outline: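 Male cockroaches continuously exposed on treated glazed tile, dried overnight before exposure; at least three replicates. Knockdown/mortality scored at intervals from 5 or 10 min, over runs lasting 20 min to 24 h depending on test.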

[5] = Table 52, fipronil/adjuvant in acetone

CNC(=O)Oc1cccc2c1OC(C)(C)O2 [bendiocarb]
% KD and Mortality 15′ [1]: 25% | % KD and Mortality 30′ [1]: 65% | % KD and Mortality 1 h [1]: 85% | % KD and Mortality 2 h [1]: 85% | % KD and Mortality 3 h [1]: 85% | % KD and Mortality 4 h [1]: 85% | % KD and Mortality 6 h [1]: 85% | % KD and Mortality 24 h [1]: 95% | % KD and Mortality 15′ [2]: 0% | % KD and Mortality 30′ [2]: 0% | % KD and Mortality 1 h [2]: 0% | % KD and Mortality 2 h [2]: 0% | % KD and Mortality 3 h [2]: 0% | % KD and Mortality 4 h [2]: 0% | % KD and Mortality 6 h [2]: 0% | % KD and Mortality 24 h [2]: 5%

N#Cc1nn(-c2c(Cl)cc(C(F)(F)F)cc2Cl)c(N)c1[S+]([O-])C(F)(F)F (stereo not drawn) [Fipronil (.01%)]
Average % Mortality after 30 min [3, 5]: 0% | Average % Mortality after 60 min [3, 5]: 0% | Average % Mortality after 2 hr [3, 5]: 0% | Average % Mortality after 3 hr [3, 5]: 0% | Average % Mortality after 24 hr [3, 5]: 100% | Average % Knockdown & Mortality after 60 min [4]: 0% | Average % Knockdown & Mortality after 3 hr [4]: 7% | Average % Knockdown & Mortality after 5 hr [4]: 7% | Average % Knockdown & Mortality after 24 hr [4]: 100%

CC1(C)[C@H](C(=O)O[C@H](C#N)c2cccc(Oc3ccccc3)c2)[C@@H]1C=C(Br)Br [deltamethrin (1%)]
Average % Mortality after 10 min ([3]; 10 min, Table 31, aqueous deltamethrin/adjuvant): 37% | Average % Mortality after 20 min ([3]; 20 min, Table 31, aqueous deltamethrin/adjuvant): 100% | Average % Mortality after 40 min ([3]; 40 min, Table 31, aqueous deltamethrin/adjuvant): 100% | Average % Mortality after 60 min ([3]; Table 31, aqueous deltamethrin/adjuvant): 100% | Average % Mortality after 4 min ([4]; 4 min, Table 32, aqueous deltamethrin/adjuvant): 27% | Average % Mortality after 8 min ([4]; 8 min, Table 32, aqueous deltamethrin/adjuvant): 100% | Average % Mortality after 12 min ([4]; 12 min, Table 32, aqueous deltamethrin/adjuvant): 100% | Average % Mortality after 20 min ([4]; 20 min, Table 32, aqueous deltamethrin/adjuvant): 100%

N#Cc1nn(-c2c(Cl)cc(C(F)(F)F)cc2Cl)c(N)c1[S+]([O-])C(F)(F)F (stereo not drawn) [Fipronil (.001%)]
Average % Mortality after 30 min [3, 5]: 0% | Average % Mortality after 60 min [3, 5]: 0% | Average % Mortality after 2 hr [3, 5]: 0% | Average % Mortality after 3 hr [3, 5]: 25% | Average % Mortality after 24 hr [3, 5]: 100% | Average % Knockdown & Mortality after 60 min [4]: 0% | Average % Knockdown & Mortality after 3 hr [4]: 0% | Average % Knockdown & Mortality after 5 hr [4]: 0% | Average % Knockdown & Mortality after 24 hr [4]: 40%
